Measured values taken from ChEMBL document CHEMBL3886728, “Dihydrobenzoxazine and tetrahydroquinoxaline sodium channel inhibitors” (2016).

Tests used:
[1] = target: T1, Sodium channel protein type 9 subunit alpha (Homo sapiens, UniProt Q15858); experiment: In Vitro Assay: HEK 293 cells stably transfected with either Nav 1.7 or with Nav 1.5 were recorded in population patch-clamp mode with the IonWorks® Quattro automated electrophysiology system in accordance with the manufacturer's specifications (Molecular Devices, LLC, Sunnyvale, Calif.). Sodium channel currents were measured in response to a train of depolarizations that induced successively greater inactivation. Cells were held at −110 mV for three seconds (Nav 1.7) or half a second (Nav 1.5) from a holding voltage of −15 mV, then put through a series of 26 pulses of 150 msec duration to −20 mV at a frequency of 5 Hz. Cells were then left unclamped for a period of 3 to 8 minutes while a single concentration of test compound was added. Cells were then reclamped and put through the same voltage protocol. Current at the end of the 26th pulse to −20 mV was subtracted from the peak current evoked by the 26th pulse to −20 mV to correct for leak current.; assay type: cell-based
T1 sequence (Q15858 whole entry): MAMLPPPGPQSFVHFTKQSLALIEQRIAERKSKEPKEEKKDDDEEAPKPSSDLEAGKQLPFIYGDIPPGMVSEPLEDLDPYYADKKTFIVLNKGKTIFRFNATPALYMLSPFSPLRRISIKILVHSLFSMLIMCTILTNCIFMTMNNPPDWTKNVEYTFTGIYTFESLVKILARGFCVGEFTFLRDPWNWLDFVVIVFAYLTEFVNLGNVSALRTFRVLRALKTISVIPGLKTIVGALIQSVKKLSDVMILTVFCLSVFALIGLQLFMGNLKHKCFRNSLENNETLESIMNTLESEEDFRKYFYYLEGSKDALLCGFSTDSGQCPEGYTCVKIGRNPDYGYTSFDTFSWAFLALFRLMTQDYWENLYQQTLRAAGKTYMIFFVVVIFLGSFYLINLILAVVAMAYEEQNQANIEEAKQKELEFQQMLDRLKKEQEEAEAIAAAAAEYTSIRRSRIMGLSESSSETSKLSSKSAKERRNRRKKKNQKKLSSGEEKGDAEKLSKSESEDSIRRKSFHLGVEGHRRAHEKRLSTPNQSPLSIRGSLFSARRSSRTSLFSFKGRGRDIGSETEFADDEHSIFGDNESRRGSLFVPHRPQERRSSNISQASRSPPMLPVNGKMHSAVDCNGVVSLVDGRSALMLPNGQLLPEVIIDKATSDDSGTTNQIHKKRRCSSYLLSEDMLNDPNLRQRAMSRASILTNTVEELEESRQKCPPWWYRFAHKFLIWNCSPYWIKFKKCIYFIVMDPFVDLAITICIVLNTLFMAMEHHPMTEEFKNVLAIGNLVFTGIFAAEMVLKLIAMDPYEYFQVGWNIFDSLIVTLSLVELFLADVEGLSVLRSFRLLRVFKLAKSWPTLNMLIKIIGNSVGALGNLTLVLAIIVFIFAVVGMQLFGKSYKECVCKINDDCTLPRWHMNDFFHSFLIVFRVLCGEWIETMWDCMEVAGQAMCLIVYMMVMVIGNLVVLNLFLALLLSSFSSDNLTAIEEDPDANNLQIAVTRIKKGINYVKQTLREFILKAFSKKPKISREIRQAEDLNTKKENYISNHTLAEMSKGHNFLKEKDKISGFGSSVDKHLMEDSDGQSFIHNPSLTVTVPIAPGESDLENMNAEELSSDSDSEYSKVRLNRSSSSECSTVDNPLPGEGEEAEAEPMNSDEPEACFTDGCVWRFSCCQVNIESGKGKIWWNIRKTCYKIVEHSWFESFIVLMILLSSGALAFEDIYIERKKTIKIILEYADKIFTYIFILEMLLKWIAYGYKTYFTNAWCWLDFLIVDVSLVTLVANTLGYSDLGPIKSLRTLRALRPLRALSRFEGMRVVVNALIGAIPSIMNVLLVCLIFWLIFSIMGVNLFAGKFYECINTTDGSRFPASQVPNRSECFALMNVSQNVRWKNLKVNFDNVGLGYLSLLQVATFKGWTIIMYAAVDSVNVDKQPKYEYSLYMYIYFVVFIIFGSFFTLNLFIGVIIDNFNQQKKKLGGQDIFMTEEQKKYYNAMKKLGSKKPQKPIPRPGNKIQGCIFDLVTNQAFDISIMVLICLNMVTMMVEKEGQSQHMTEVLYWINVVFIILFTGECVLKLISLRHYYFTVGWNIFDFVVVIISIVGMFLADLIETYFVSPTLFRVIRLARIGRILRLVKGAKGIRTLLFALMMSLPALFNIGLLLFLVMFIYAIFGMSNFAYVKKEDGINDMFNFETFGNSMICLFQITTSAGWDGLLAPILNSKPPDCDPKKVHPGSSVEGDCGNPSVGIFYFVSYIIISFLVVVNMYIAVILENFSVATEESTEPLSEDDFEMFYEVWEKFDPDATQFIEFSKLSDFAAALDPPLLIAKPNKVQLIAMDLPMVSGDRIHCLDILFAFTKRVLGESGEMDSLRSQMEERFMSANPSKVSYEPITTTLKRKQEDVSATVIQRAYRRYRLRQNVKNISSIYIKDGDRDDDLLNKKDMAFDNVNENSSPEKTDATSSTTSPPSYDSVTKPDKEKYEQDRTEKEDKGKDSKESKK

[2] = target: T1, Sodium channel protein type 9 subunit alpha; experiment: In Vitro PX Assay: HEK 293 cells stably transfected with human Nav1.7 were recorded in whole cell voltage clamp mode with the PatchXpress automated electrophysiology system (Molecular Devices, LLC, Sunnyvale, Calif.). Compound effects were measured on a partially inactivated state of the sodium channel. Cells were clamped to a holding potential yielding 20 to 50% inactivation. To elicit sodium current, channels were activated by pulsing to −10 mV for 20 msec. This voltage protocol was repeated at a rate of 0.1 Hz throughout the experiment. A single concentration of test compound was applied to cells for a duration of 3 minutes.; assay type: cell-based

Row | SMILES | IC50 [2] | IC50 [1]
1 | O=S(=O)(Nc1nccs1)c1ccc2c(c1)OCCN2c1ccccc1C(F)(F)F | 8.02 µM | 1.66 µM
2 | COc1cc(C#N)ccc1N1CCOc2cc(S(=O)(=O)Nc3ccncn3)ccc21 | 0.91 µM | –
3 | O=C1CCCc2ccc(N3CCOc4cc(S(=O)(=O)Nc5nccs5)ccc43)cc21 | 7.1 µM | 1.1 µM
4 | COc1ccc(N2CCOc3cc(S(=O)(=O)Nc4nccs4)ccc32)c(C#N)c1 | 13.8 µM | 2.69 µM
5 | O=S(=O)(Nc1nccs1)c1ccc2c(c1)OCCN2c1ncc(Cl)cc1Cl | 4.5 µM | 0.397 µM
6 | Cc1ccc(N2CCOc3cc(S(=O)(=O)Nc4nccs4)ccc32)cc1F | – | 7.37 µM
7 | O=S(=O)(Nc1nccs1)c1ccc2c(c1)OCCN2c1cccc2scnc12 | 5.76 µM | 3.76 µM
8 | COc1cccc(N2CCOc3cc(S(=O)(=O)Nc4nccs4)ccc32)c1 | 2.07 µM | 0.141 µM
9 | O=S(=O)(Nc1nccs1)c1ccc2c(c1)OCCN2c1ccc(-n2ccnc2)cc1 | 13.7 µM | 2.69 µM

More lines, in order of falling IC50 [2], values ahead:

Row | IC50 [2] | SMILES | IC50 [1]
10 | 3.19 µM | N#Cc1ccc(F)c(N2CCOc3cc(S(=O)(=O)Nc4nccs4)ccc32)c1 | 0.727 µM
11 | 2.85 µM | CCOc1cccc(N2CCOc3cc(S(=O)(=O)Nc4nccs4)ccc32)c1 | 0.742 µM
12 | 2.37 µM | Cc1cc(N2CCOc3cc(S(=O)(=O)Nc4nccs4)ccc32)cc(C)c1N(C)C | 0.808 µM
13 | 1.82 µM | O=S(=O)(Nc1nccs1)c1ccc2c(c1)OCCN2c1ccc(F)cc1F | 0.191 µM
14 | 1.55 µM | Cc1ccc(N2CCOc3cc(S(=O)(=O)Nc4nccs4)ccc32)cc1Cl | 0.733 µM
15 | 1.11 µM | O=S(=O)(Nc1nccs1)c1ccc2c(c1)OCCN2c1cc(F)ccc1F | 0.114 µM
16 | 0.961 µM | O=S(=O)(Nc1nccs1)c1ccc2c(c1)OCCN2c1cccc(Cl)c1Cl | 0.274 µM
17 | 0.416 µM | Cc1c(Cl)cccc1N1CCOc2cc(S(=O)(=O)Nc3nccs3)ccc21 | 0.601 µM
18 | 0.364 µM | CN1CC=C(c2cc(C(F)(F)F)ccc2N2CCOc3cc(S(=O)(=O)Nc4ccncn4)ccc32)CC1 | 0.0045 µM
19 | 0.306 µM | CC(C)(C)OC(=O)N1CC=C(c2cc(C(F)(F)F)ccc2N2CCOc3cc(S(=O)(=O)Nc4ncns4)ccc32)CC1 | 0.0818 µM
